# Results reported in patent publication US20240166652A1, “MODULATORS OF THE INTEGRATED STRESS PATHWAY” (Calico Life Sciences LLC, priority 2017, published 2024).
# pEC50: −log10 of the molar value.
# Tested on: ATF4 luciferase reporter in HEK293T cells
# Assay: ATF4-Luc assay (ATF4 luciferase reporter, tunicamycin-treated HEK293T cells)
# Type: cell-based, human
# Conditions: Homo sapiens, HEK-293T; HEK293T cells carrying the ATF4 luciferase reporter, 1 μg/mL tunicamycin, 7 hours
row,Structure (SMILES),pEC50
1,"O=C(COc1ccc(S(F)(F)(F)(F)F)cc1)NC12CC(NC(=O)COc3ccc4c(c3)OC(F)(F)O4)(C1)C2 [Compound 278, 2-[(2,2-difluoro-2H-1,3-benzodioxol-5-yl)oxy]-N-(3-{2-[4-(pentafluoro-λ^6-sulfanyl)phenoxy]acetamido}bicyclo[1.1.1]pentan-1-yl)acetamide]",7.30 to 8.00
2,"O=C(COc1ccc(Cl)c(F)c1)NC12CCC(NC(=O)COc3ccc(Cl)c(F)c3)(CC1)C(NC1(CO)COC1)C2 (stereo not drawn) [Compound 701, N,N′-(2-{[3-(hydroxymethyl)oxetan-3-yl]amino}bicyclo[2.2.2]octane-1,4-diyl)bis[2-(4-chloro-3-fluorophenoxy)acetamide]]",7.30 to 8.00
3,"O=C(COc1ccc(F)c(Cl)c1)NC12CC(NC(=O)COc3ccc(F)c(Cl)c3)(C1)C2 [Compound 547, N,N′-(bicyclo[1.1.1]pentane-1,3-diyl)bis[2-(3-chloro-4-fluorophenoxy)acetamide]]",> 8.00
4,"O=C(COc1ccc(F)c(F)c1)NC12CC(NC(=O)COc3ccc(Cl)c(F)c3)(C1)C2 [Compound 183, 2-(4-chloro-3-fluorophenoxy)-N-{3-[2-(3,4-difluorophenoxy)acetamido]-bicyclo[1.1.1]pentan-1-yl}acetamide]",> 8.00
5,"O=C(COc1ccc(Cl)c(F)c1)NC12CC(NC(=O)OCc3ccccc3)(C1)C2 [Compound 192, benzyl {3-[2-(4-chloro-3-fluorophenoxy)acetamido]bicyclo[1.1.1]pentan-1-yl}carbamate]",5.70 to 6.30
6,"O=C(COc1ccc(Cl)c(F)c1)NC12CC(NC(=O)C(=O)Cc3ccc(Cl)cc3)(C1)C2 [Compound 312, N-{3-[2-(4-chloro-3-fluorophenoxy)acetamido]bicyclo[1.1.1]pentan-1-yl}-3-(4-chlorophenyl)-2-oxopropanamide]",6.60 to 7.30
7,"O=C(COc1ccc(Cl)c(F)c1)NC12CC(NC(=O)Cc3noc4ccccc34)(C1)C2 [Compound 360, 2-(1,2-benzoxazol-3-yl)-N-{3-[2-(4-chloro-3-fluorophenoxy)acetamido]bicyclo[1.1.1]pentan-1-yl}acetamide]",< 5.70
8,"O=C(COc1ccc(F)c(F)c1)NC12CCC(NC(=O)COc3ccc(F)c(F)c3)(CC1)[C@@H](O)C2 [Compound 615, N,N′-[(2S)-2-hydroxybicyclo[2.2.2]octane-1,4-diyl]bis[2-(3,4-difluorophenoxy)acetamide]]",> 8.00
9,"O=C(COc1ccc(Cl)c(F)c1)NC12CCC(NC(=O)COc3ccc(OC(F)(F)F)cc3)(CC1)[C@@H](O)C2 [Compound 505, 2-(4-chloro-3-fluorophenoxy)-N-[(3S)-3-hydroxy-4-{2-[4-(trifluoromethoxy)phenoxy]acetamido}bicyclo[2.2.2]octan-1-yl] acetamide]",> 8.00
10,"NC1CC2(NC(=O)COc3ccc(Cl)c(F)c3)CCC1(NC(=O)COc1ccc(Cl)c(F)c1)CC2 (stereo not drawn) [Compound 357, N,N′-(2-aminobicyclo[2.2.2]octane-1,4-diyl)bis[2-(4-chloro-3-fluorophenoxy)acetamide]]",> 8.00
11,"O=C(COc1ccc(Cl)c(F)c1)NC12CCC(NC(=O)COc3ncnc4sccc34)(CC1)[C@@H](O)C2 [Compound 514, 2-(4-chloro-3-fluorophenoxy)-N-[(3S)-3-hydroxy-4-{2-[(thieno[2,3-d]pyrimidin-4-yl)oxy]acetamido}bicyclo[2.2.2]octan-1-yl]acetamide]",7.30 to 8.00
12,O=C(COc1cc(F)c2cn[nH]c2c1)NC12CCC(NC(=O)COc3ccc(C(F)(F)F)nc3)(CC1)[C@@H](O)C2 [Compound 720],> 8.00
13,"O=C(COc1ccc(Cl)c(F)c1)NC12CCC(NC(=O)COc3ccnn(CC(F)(F)F)c3=O)(CC1)C(=O)C2 [Compound 316, 2-(4-chloro-3-fluorophenoxy)-N-[3-oxo-4-(2-{[3-oxo-2-(2,2,2-trifluoroethyl)-2,3-dihydropyridazin-4-yl]oxy}acetamido)bicyclo[2.2.2]octan-1-yl]acetamide]",5.70 to 6.30
14,"O=C(COc1ccc(Cl)c(CO)c1)NC12CCC(NC(=O)COc3ccc(Cl)c(F)c3)(CC1)[C@@H](O)C2 [Compound 598, 2-(4-chloro-3-fluorophenoxy)-N-[(2S)-4-{2-[4-chloro-3-(hydroxymethyl)phenoxy]acetamido}-2-hydroxybicyclo[2.2.2]octan-1-yl]acetamide]",> 8.00
15,"O=C(COCCc1cccc(F)c1)NC12CC(NC(=O)COc3ccc(Cl)c(F)c3)(C1)C2 [Compound 132, 2-(4-chloro-3-fluorophenoxy)-N-(3-{2-[2-(3-fluorophenyl)ethoxy]acetamido}-bicyclo[1.1.1]pentan-1-yl)acetamide]",6.60 to 7.30
16,"Cc1cc(COCC(=O)NC23CC(NC(=O)COc4ccc(Cl)c(F)c4)(C2)C3)cc(C)n1 [Compound 282, 2-(4-chloro-3-fluorophenoxy)-N-(3-{2-[(2,6-dimethylpyridin-4-yl)methoxy]acetamido}bicyclo[1.1.1]pentan-1-yl)acetamide]",< 5.70
17,"O=C(COc1ccc(Cl)c(F)c1)NC12CC(NC(=O)COc3cc(F)c(F)c(F)c3)(C1)C2 [Compound 416, 2-(4-chloro-3-fluorophenoxy)-N-{3-[2-(3,4,5-trifluorophenoxy)acetamido]bicyclo[1.1.1]pentan-1-yl}acetamide]",> 8.00

row,Structure (SMILES),pEC50
1,"COC(=O)c1cc(OCC(=O)NC23CCC(NC(=O)COc4ccc(Cl)c(C(=O)OC)c4)(CC2)[C@@H](O)C3)ccc1Cl [Compound 594, dimethyl 3,3′-{[(2S)-2-hydroxybicyclo[2.2.2]octane-1,4-diyl]bis[azanediyl(2-oxoethane-2,1-diyl)oxy]}bis(6-chlorobenzoate)]",< 5.70
2,"O=C(COc1ccc(Cl)c(F)c1)NC12CCC(NC(=O)Cc3ccncc3)(CC1)C(O)C2 (stereo not drawn) [Compound 328, 2-(4-chloro-3-fluorophenoxy)-N-{3-hydroxy-4-[2-(pyridin-4-yl)acetamido]bicyclo[2.2.2]octan-1-yl}acetamide]",< 5.70
3,"COc1ccc(OCC(=O)NC23CC(NC(=O)COc4ccc(Cl)c(F)c4)(C2)C3)c(C)n1 [Compound 252, 2-(4-chloro-3-fluorophenoxy)-N-(3-{2-[(6-methoxy-2-methylpyridin-3-yl)oxy]acetamido}bicyclo[1.1.1]pentan-1-yl)acetamide]",6.60 to 7.30
4,"O=C(COc1ccc(Cl)c(F)c1)NC12CCC(NC(=O)COc3ccc4ccccc4c3)(CC1)[C@@H](O)C2 [Compound 517, 2-(4-chloro-3-fluorophenoxy)-N-[(3S)-3-hydroxy-4-{2-[(naphthalen-2-yl)oxy]acetamido}bicyclo[2.2.2]octan-1-yl]acetamide]",> 8.00
5,"Cn1cc(OCC(=O)NC23CCC(NC(=O)COc4ccc(Cl)c(F)c4)(CC2)C[C@@H]3O)cn1 [Compound 658, 2-(4-chloro-3-fluorophenoxy)-N-[(3S)-3-hydroxy-4-{2-[(1-methyl-1H-pyrazol-4-yl)oxy]acetamido}bicyclo[2.2.2]octan-1-yl]acetamide]",6.60 to 7.30
6,"O=C(COc1ccc(Cl)c(Cl)c1)NC12CC(NCCOc3ccc(Cl)c(Cl)c3)(C1)C2 [Compound 125, 2-(3,4-dichlorophenoxy)-N-(3-{[2-(3,4-dichlorophenoxy)ethyl]amino}-bicyclo[1.1.1]pentan-1-yl)acetamide]",> 8.00
7,"O=C(/C=C/c1ccc(C(F)(F)F)cc1)NC12CC(NC(=O)/C=C/c3ccc(C(F)(F)F)cc3)(C1)C2 [Compound 370, (2E,2′E)-N,N′-(bicyclo[1.1.1]pentane-1,3-diyl)bis{3-[4-(trifluoromethyl)phenyl]prop-2-enamide}]",< 5.70
8,"O=C(COc1ccc(F)cc1)NC12CCC(NC(=O)COc3ccc(Cl)c(Cl)c3)(CC1)[C@@H](O)C2 [Compound 581, 2-(3,4-dichlorophenoxy)-N-{(2S)-4-[2-(4-fluorophenoxy)acetamido]-2-hydroxybicyclo[2.2.2]octan-1-yl}acetamide]",> 8.00
9,"O=C(COc1ccc(Cl)c(F)c1)NC12CCC(NC(=O)COc3ccnc(C(F)(F)F)c3)(CC1)C(O)C2 (stereo not drawn) [Compound 308, 2-(4-chloro-3-fluorophenoxy)-N-[3-hydroxy-4-(2-{[2-(trifluoromethyl)pyridin-4-yl]oxy}acetamido)bicyclo[2.2.2]octan-1-yl]acetamide]",> 8.00
10,"O=C(COc1ccc(Cl)cc1)NC12CCCC(NC(=O)COc3ccc(Cl)cc3)(C1)C2 [Compound 178, N,N′-(bicyclo[3.1.1]heptane-1,5-diyl)bis[2-(4-chlorophenoxy)acetamide]]",< 5.70
11,"Cc1ccc(OCC(=O)NC23CC(NC(=O)COc4ccc(Cl)c(F)c4)(C2)C3)c(Cl)n1 [Compound 237, 2-(4-chloro-3-fluorophenoxy)-N-(3-{2-[(2-chloro-6-methylpyridin-3-yl)oxy]acetamido}bicyclo[1.1.1]pentan-1-yl)acetamide]",6.60 to 7.30
12,"O=C(COc1ccc(F)cc1)NC12CCC(NC(=O)COc3ccc(Cl)c(F)c3)(CC1)C(O)C2 (stereo not drawn) [Compound 330, 2-(4-chloro-3-fluorophenoxy)-N-{4-[2-(4-fluorophenoxy)acetamido]-2-hydroxybicyclo[2.2.2]octan-1-yl}acetamide]",> 8.00
13,"CC(=O)c1ccc(OCC(=O)NC23CCC(NC(=O)COc4ccc(Cl)c(F)c4)(CC2)C[C@@H]3O)cc1 [Compound 511, 2-(4-acetylphenoxy)-N-{(2S)-4-[2-(4-chloro-3-fluorophenoxy)acetamido]-2-hydroxybicyclo[2.2.2]octan-1-yl}acetamide]",7.30 to 8.00
14,"O=C(COc1ccc(Cl)cc1)NC12CCC(NC(=O)COc3ccc(F)c(Cl)c3)(CC1)CC2 [Compound 743, 2-(3-chloro-4-fluorophenoxy)-N-{4-[2-(4-chlorophenoxy)acetamido]bicyclo[2.2.2]octan-1-yl}acetamide]",> 8.00
15,"Cc1cc(OCC(=O)NC23CCC(NC(=O)COc4ccc(Cl)c(Cl)c4)(CC2)[C@@H](O)C3)no1 [Compound 664, 2-(3,4-dichlorophenoxy)-N-[(2S)-2-hydroxy-4-{2-[(5-methyl-1,2-oxazol-3-yl)oxy]acetamido}bicyclo[2.2.2]octan-1-yl]acetamide]",7.30 to 8.00
16,"O=C(COc1ccc(Cl)c(F)c1)NC12CCC(NC(=O)COc3ccc(C(F)(F)F)nc3)(CC1)[C@H](O)C2 (single isomer, unassigned) [Compound 303]",7.30 to 8.00
